One compound from patent US6566368B2, “Apomorphine-containing dosage form for ameliorating male erectile dysfunction” (Pentech Pharmaceuticals, Inc., priority 1994, dated 2003) can be followed below.

Data set [1] deals with patients with psychogenic impotence.
The test system is the same in data set [2]. Kind of data set: Pilot Study #3: aqueous intranasal spray (1.25 mg per puff), […] erectile response, adverse effects. The data set is classed as in vivo, human. The text has this: The first patient was an anxious person who had been experiencing erectile dysfunction for two years.
For data set [3] the following is noted: in vivo; for Vd (SS) / Vd (beta): male, human.
The mark [4] stands for this setting: liquid apomorphine sublingual, 10 mg and 20 mg, ten evaluable patients.
The mark [5] stands for this setting: liquid sublingual 10 mg and 20 mg.
Setting [6] is: intranasal 2.5 mg, Patient No. 2.

SMILES strings stand for the structures. Where two headings read alike, the source gives them in different places.

Regarding `CN1CCc2cccc3c2[C@H]1Cc1ccc(O)c(O)c1-3` [apomorphine], in data set [1] (setting [4]), the failures with apomorphine came to 30%; the “successes (score of no less than 16 on both neutral and erotic video segments)” value is on record as 70%. Besides, in data set [1] (setting [5]), the adverse effects result is recorded as “Adverse effects were reported at both dose levels”, the erectile response entry was “produce erectile responses”, the “longest duration of side effects” value was in the range of 30 to 40 min and the “onset of adverse effects” value is “ten to fifteen”. In addition, the yawns per session entry in data set [1] (liquid sublingual 10 mg and 20 mg, each patient) was “two to five”. In data set [1] (liquid sublingual 10 mg and 20 mg, listed as Apomorphine), the erectile response result is reported as “effective in inducing erectile episodes without increasing libido”. In addition, the “patients successful with apomorphine among those who had failed a trial of yohimbine HCl” value in data set [1] (of group of eight, liquid sublingual 10 mg and 20 mg) was determined as 6. Further, the “patients developing nausea, diaphoresis, dizziness, blurred vision, decrease in blood pressure and heart rate” value in data set [1] (of ten evaluable, liquid sublingual 10 mg and 20 mg) is “eight”. For the same compound, in data set [2] (setting [6]), the adverse effects entry was “major hemodynamic adverse effects” and the “blood pressure (hypotension)” value is 70/50. The total yawns result in data set [2] (intranasal 2.5 mg, Patient No. 2, ten minutes post-dosing) is listed as “five”. The erectile response entry in data set [2] (intranasal administration) was “effective in eliciting an erection”. The “score on both erotic and neutral video segments” value in data set [2] (intranasal spray 2.5 mg, 3.75 mg, first patient, categorized as a failure) is on record as “less than sixteen”. In data set [2] (intranasal spray, first patient, after inadvertently increased dose), the “time to adverse effects (nausea and vomiting, dizziness, blurred vision, diaphoresis)” value is reported as “five”. For the same compound, the “plasma concentration compared with previous reports (Table XVI)” value in data set [3] was “produced a lower plasma concentration”. In data set [3] (4 mg), the “Vd (SS)” value turned out to be 1.836 mL and the “Vd (beta)” value stood at 4.076 mL. In addition, in data set [3] (8 mg), the “Vd (SS)” value stood at 46.30 mL and the “Vd (beta)” value was found to be 69.09 mL.
